Molecules are shown by their SMILES. pIC50: −log10 of the molar value.

Series [1] relates to Mus musculus. As to the kind of experiment: Dose that prevents convulsions in 50% of the CF1 male mice tested after administration of 70 mg/kg of metrazole by intravenous route. Type of series: functional.
The target of series [2] is GABA-A receptor; anion channel. Description: In vitro displacement of [3H]-diazepam from GABA-A Benzodiazepine receptor. Type of series: protein-complex assay. (Loss of bound radioactivity is the signal in a displacement assay; it reports binding, not function.)
Series [3] is described as follows: Lethal dose was determined after intraperitoneal administration in mice. The series is classed as toxicity, organism-based. To be noted: mouse, in vivo, ip.

`NCC(=O)Nc1ccc(Cl)cc1C(=O)c1ccccc1Cl`: it took a dose of 3.8 mg/kg to reach the 50% effect level in series [1] (ED50). This molecule also had a pIC50 in series [2] of 8.32.
`O=C1CN=C(c2ccccc2Cl)c2cc(Cl)ccc2N1` [DELORAZEPAM]: the ED50 in series [1] is 0.26 mg/kg. The molecule also showed a pIC50 in series [2] of 8.55.
Regarding `CN1C(=O)CN=C(c2c(Cl)cccc2Cl)c2cc(Cl)ccc21`, in series [1], it took a dose of 18.9 mg/kg to reach the 50% effect level (ED50). The molecule also gave a pIC50 in series [2] of 8.15.
The molecule `CN1C(=O)CN=C(c2ccccc2)c2cc(Cl)ccc21` [DIAZEPAM] showed an ED50 in series [1] of 1.2 mg/kg.
Consider `CN(C(=O)CN)c1ccc(Cl)cc1C(=O)c1ccccc1`, for which, in series [1], the ED50 was 1 mg/kg. In addition, in series [2], the pIC50 is 8.00.
As to `CN(C(=O)CN)c1ccc(Cl)cc1C(=O)c1c(Cl)cccc1Cl.Cl`, the ED50 in series [1] was over 200 mg/kg. In series [2], this molecule had a pIC50 of 6.03. In addition, the LD50 in series [3] worked out at 245 mg/kg.
In turn, `Cl.NCC(=O)Nc1ccc(Cl)cc1C(=O)c1c(Cl)cccc1Cl` showed an ED50 in series [1] of over 400 mg/kg. In series [2], this molecule had a pIC50 of 6.00.
With `O=C1CN=C(c2c(Cl)cccc2Cl)c2cc(Cl)ccc2N1` [RO-223294], it took a dose of 6 mg/kg to reach the 50% effect level in series [1] (ED50). Also, the pIC50 in series [2] was 8.26.

Usually ED50 stands for the midpoint of the dose-response relation. Higher therefore signals weaker potency. As a reminder, the pIC50 is the negative decadic logarithm of the IC50, by convention in mol/L. Lower therefore signals a high IC50. Usually LD50 stands for the dose at which mortality reaches 50%. Higher therefore signals a less toxic substance.

For the origin of these results see ChEMBL document CHEMBL1122128, “Quinazolines and 1,4-benzodiazepines. 90. Structure-activity relationship between substituted 2-amino-N-(2-benzoyl-4-chlorophenyl)acetamides and 1,4-benzodiazepinones” (J Med Chem, 1982).
